From patent US7767210B2, “RNA virus vaccines and methods” (priority 2005, dated 2010)

Key:
OK02 strain of WNV = experiment: MB + light inactivation of WNV, plaque assay on Vero cells; assay type: cell-based, West Nile Virus; settings: MB above 2 μM and light; FIG. 2 panel A
Experimental: (§1) MB inactivation of West Nile Virus. 1 ml aliquots of WNV at a concentration of 10^7 pfu were mixed with MB (SIGMA INC.) to achieve the desired final concentration of MB in the reaction mixture. Mixtures were incubated for 20 minutes in the dark at room temperature and then subsequently for 10 minutes at 10 cm distance from a 40 watt fluorescent white culture hood light at room temperature. Samples were then diluted to the desired concentration of WNV for plaque assay. Inactivated virus was prepared fresh for each assay and never kept for longer than 2 hours at 4° C. before use. It is contemplated that other RNA viruses as described herein can be similarly treated for vaccine formation.
(§2) Plaque Assays. Five-fold serial dilutions of WNV strains either mock-treated or treated with MB were placed onto Vero cell monolayers cultured in either 6-well plates or T25 culture flasks (GREINER INC.). Virus aliquots were allowed to attach to the cells for 1 hour at normal cell culture conditions. After one hour the virus was aspirated from the cells. The monolayers were washed twice with phosphate-buffer saline (PBS) and overlayed with 2 ml or 5 ml (6-well or T25, respectively) of 1% methylcellulose (SIGMA INC.) medium supplemented with 2% calf serum. Cells were incubated for 5 days. Afterwards the methylcellulose was removed, the monolayers were washed once with PBS and fixed with 100% ice-cold methanol for 5 minutes. The monolayers were subsequently stained with 0.5% Giemsa stain (SIGMA INC.) and plaques counted using a MZ12 dissecting microscope (LEICA INC., Germany).
(§3) As a member of the Flaviviridae family of viruses, WNV utilizes a RNA dependent RNA polymerase for replication. This process is relatively error prone and can lead to the creation of multiple strains. To test the ability of MB to inactivate multiple WNV strains, MB was tested against multiple strains of WNV, including OK02, OK03 and NY-99 (the 1999 prototype virus NY-99 and the more recent Oklahoma isolates from 2002 and 2003). 5×10^3 pfu of OK03 WNV was incubated with 2 μM MB and light. […]

NY-99 strain of WNV = experiment: as above; assay type: cell-based, West Nile Virus; settings: MB above 2 μM and light; data not shown; stated as 'held true' for this strain
Experimental: as §1, §2, §3

OK03 strain of WNV = experiment: as above; assay type: cell-based, West Nile Virus; settings: MB above 2 μM and light; FIG. 2 panel B; stated as 'held true' for this strain
Experimental: as §1, §2, §3

WNV [1] = experiment: MB photoinactivation of WNV in tissue culture (strain not stated); assay type: cell-based, West Nile Virus
Experimental: as §1
as §2, with “Cells were incubated for 5 days. Afterwards the methylcellulose was removed, the monolayers were washed once with PBS and fixed with 100% ice-cold methanol for 5 minutes.” left out

[2] = cited from earlier work
WNV strain OK02 = experiment: Safety of MB-treated WNV in immunocompetent mice (i.p. injection, survival); assay type: in vivo, BalbC/j mice; settings: virus treated with MB+light, doses of 10^3 and 10^4 pfu per animal
WNV [3] = experiment: Safety of MB-treated WNV in immunodeficient mice (i.p. injection, survival); assay type: in vivo, C.B. 17-SCID mice; settings: 20 μM MB; conclusion from BalbC/j and SCID mice

Compound: CN(C)c1ccc2nc3ccc(N(C)C)cc3[s+]c2c1.[Cl-] [MB, 3,7-Bis(dimethylamino)phenothiazin-5-ium chloride]
- reduction of viral activity (OK02 strain of WNV): ≥ 10^3
- reduction of viral activity (NY-99 strain of WNV): ≥ 10^3
- reduction of viral activity (OK03 strain of WNV): ≥ 10^3
- reduction of virus titer (WNV [1]; 20 μM MB + light): 10^7 pfu
- IC50 (WNV [1]; West Nile virus, MB + light, tissue culture, read-out: IC50 of MB+light inactivation of WNV): 100 nM
- oral absorption ([2]; DiSanto and Wagner 1972): absorbed orally
- concentration in blood ([2]; oral 100 mg/kg twice daily (Naylor et al., 1986)): ~50 µM
- half-life ([2]; oral (DiSanto and Wagner 1972)): about 10 h
- side effects on long-term oral use ([2]; oral, up to 19 months at 100 mg/kg twice daily (Naylor et al., 1986)): no reported side effects
- WNV-associated morbidity and mortality (WNV strain OK02): completely block-associated morbidity and mortality
- effect on WNV-associated morbidity and mortality in vivo (WNV [3]): can stop WNV-associated morbidity and mortality
